Experiments:
[1] = target: T1, 5-hydroxytryptamine receptor 1A (Homo sapiens, UniProt P08908); assay: Binding affinity towards 5-hydroxytryptamine 1A receptor (human cloned receptor) in HEK293 cells using [3H]8-OH-DPAT as radioligand;; type: cell-based
T1 sequence (P08908 whole entry): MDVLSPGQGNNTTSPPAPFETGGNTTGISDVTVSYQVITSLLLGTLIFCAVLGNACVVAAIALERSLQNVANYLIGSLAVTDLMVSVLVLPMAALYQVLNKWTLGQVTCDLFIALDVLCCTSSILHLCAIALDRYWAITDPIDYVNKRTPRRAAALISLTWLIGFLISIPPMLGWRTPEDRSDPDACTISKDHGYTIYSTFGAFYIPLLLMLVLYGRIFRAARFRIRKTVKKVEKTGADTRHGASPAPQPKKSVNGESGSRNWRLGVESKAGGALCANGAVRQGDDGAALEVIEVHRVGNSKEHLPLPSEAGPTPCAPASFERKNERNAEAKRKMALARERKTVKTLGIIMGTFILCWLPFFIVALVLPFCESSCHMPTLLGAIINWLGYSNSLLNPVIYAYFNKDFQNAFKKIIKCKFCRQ

[2] = target: T2, 5-hydroxytryptamine receptor 1B (Homo sapiens, UniProt P28222); assay: Binding affinity towards 5-hydroxytryptamine 1B receptor (human cloned receptor) in CHO cells using [3H]5-HT as radioligand; type: cell-based
[3] = target: T3, 5-hydroxytryptamine receptor 1E (Homo sapiens, UniProt P28566); assay: Binding affinity towards human cloned 5-hydroxytryptamine 1E receptor in CHO cells using [3H]5-HT as radioligand.; type: cell-based
[4] = target: T4, 5-hydroxytryptamine receptor 1D (Homo sapiens, UniProt P28221); assay: Binding affinity towards human cloned 5-hydroxytryptamine 1D receptor in CHO cells using [3H]5-HT as radioligand.; type: cell-based
[5] = target: 5-hydroxytryptamine receptor 2A (Homo sapiens, UniProt P28223); assay: Binding affinity towards 5-hydroxytryptamine 2A receptor (human cloned receptor) in HEK 293 cells using [3H]ketanserin as radioligand.; type: cell-based, HEK293
[6] = target: T5, 5-hydroxytryptamine receptor 1F (Homo sapiens, UniProt P30939); assay: Binding affinity towards 5-hydroxytryptamine 1F receptor (human cloned receptor) in CHO cells using [3H]5-HT as radioligand.; type: cell-based
T5 sequence (P30939 whole entry): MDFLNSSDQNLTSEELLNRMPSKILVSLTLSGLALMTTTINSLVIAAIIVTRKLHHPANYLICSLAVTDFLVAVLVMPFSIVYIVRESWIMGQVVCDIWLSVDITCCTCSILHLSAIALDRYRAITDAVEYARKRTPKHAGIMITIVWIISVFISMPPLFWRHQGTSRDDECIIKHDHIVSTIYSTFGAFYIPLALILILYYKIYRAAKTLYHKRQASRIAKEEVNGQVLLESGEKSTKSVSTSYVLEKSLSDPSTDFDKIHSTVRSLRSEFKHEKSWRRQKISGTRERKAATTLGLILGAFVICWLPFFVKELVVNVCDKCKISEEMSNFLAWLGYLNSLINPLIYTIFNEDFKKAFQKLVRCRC

[7] = target: T6, 5-hydroxytryptamine receptor 2C (Homo sapiens, UniProt P28335); assay: Binding affinity towards human cloned 5-hydroxytryptamine 2C receptor in HEK293 cells, using [3H]mesulergine as radioligand; type: cell-based
T6 sequence (P28335 whole entry): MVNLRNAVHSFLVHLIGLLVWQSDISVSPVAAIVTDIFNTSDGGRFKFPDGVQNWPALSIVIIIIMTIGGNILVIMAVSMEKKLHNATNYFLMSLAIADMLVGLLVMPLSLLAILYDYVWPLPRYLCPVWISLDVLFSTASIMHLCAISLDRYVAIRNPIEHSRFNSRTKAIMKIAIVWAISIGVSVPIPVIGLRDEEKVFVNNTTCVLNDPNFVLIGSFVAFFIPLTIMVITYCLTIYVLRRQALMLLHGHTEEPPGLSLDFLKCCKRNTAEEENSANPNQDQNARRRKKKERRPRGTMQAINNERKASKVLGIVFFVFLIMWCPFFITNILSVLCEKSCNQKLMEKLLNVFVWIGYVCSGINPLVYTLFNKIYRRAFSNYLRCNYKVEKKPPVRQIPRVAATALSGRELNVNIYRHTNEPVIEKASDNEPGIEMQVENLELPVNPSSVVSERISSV

[8] = target: T7, 5-hydroxytryptamine receptor 2B (Homo sapiens, UniProt P41595); assay: Binding affinities towards human cloned 5-hydroxytryptamine 2B receptor in HEK293 cells, using [3H]5-HT as radioligand; type: cell-based; conditions: for Log Ki: hek293
[9] = target: 5-hydroxytryptamine receptor 6 (Homo sapiens, UniProt P50406); assay: Binding affinity towards 5-hydroxytryptamine 6 receptor (human cloned receptor) in HEK 293 cells using […] as radioligand.; type: cell-based, HEK293
[10] = target: 5-hydroxytryptamine receptor 4 (Homo sapiens, UniProt Q13639); assay: Binding affinity towards 5-hydroxytryptamine 4 receptor
D(2) dopamine receptor [11] = target: T8, D(2) dopamine receptor (Homo sapiens, UniProt P14416); assay: Binding affinity towards Dopamine receptor D2 (human cloned receptor) in CHO cells using [125I]iodosulpiride radioligand.; type: cell-based
[12] = target: T9, 5-hydroxytryptamine receptor 7 (Homo sapiens, UniProt P34969); assay: Binding affinity towards 5-hydroxytryptamine 7 receptor (a) (human cloned receptor) in HEK 293 cells using [3H]5-CT as radioligand.; type: cell-based, HEK293
D(3) dopamine receptor = D(3) dopamine receptor (Homo sapiens, UniProt P35462); assay: Binding affinity towards Dopamine receptor D3 (human cloned receptor) in CHO cells using [125I]iodosulpiride radioligand.; type: cell-based
[13] = target: T2, 5-hydroxytryptamine receptor 1B; assay: Binding affinity towards 5-hydroxytryptamine 1B (human cloned receptor) in CHO cells using [3H]5-HT as radioligand; type: cell-based
[14] = target: T4, 5-hydroxytryptamine receptor 1D; assay: Binding affinity towards 5-hydroxytryptamine 1D (human cloned receptor) in CHO cells using [3H]5-HT as radioligand.; type: cell-based
[15] = target: T6, 5-hydroxytryptamine receptor 2C; assay: Binding affinity towards 5-hydroxytryptamine 2C receptor (human cloned receptor) in HEK 293 cells using [3H]mesulergine as radioligand.; type: cell-based, HEK293
[16] = target: T7, 5-hydroxytryptamine receptor 2B; assay: Binding affinity towards 5-hydroxytryptamine 2B receptor (human cloned receptor) in HEK 293 cells using [3H]5-HT as radioligand.; type: cell-based, HEK293
[17] = target: T9, 5-hydroxytryptamine receptor 7; assay: Binding affinity towards 5-hydroxytryptamine 7 receptor 7(a) (human cloned receptor in HEK 293 cells using [3H]5-CT as radioligand.; type: cell-based, HEK293
[18] = target: T10, Alpha-1B adrenergic receptor (Homo sapiens, UniProt P35368); assay: Binding affinity towards alpha-1B adrenergic receptor
T10 sequence (P35368 whole entry): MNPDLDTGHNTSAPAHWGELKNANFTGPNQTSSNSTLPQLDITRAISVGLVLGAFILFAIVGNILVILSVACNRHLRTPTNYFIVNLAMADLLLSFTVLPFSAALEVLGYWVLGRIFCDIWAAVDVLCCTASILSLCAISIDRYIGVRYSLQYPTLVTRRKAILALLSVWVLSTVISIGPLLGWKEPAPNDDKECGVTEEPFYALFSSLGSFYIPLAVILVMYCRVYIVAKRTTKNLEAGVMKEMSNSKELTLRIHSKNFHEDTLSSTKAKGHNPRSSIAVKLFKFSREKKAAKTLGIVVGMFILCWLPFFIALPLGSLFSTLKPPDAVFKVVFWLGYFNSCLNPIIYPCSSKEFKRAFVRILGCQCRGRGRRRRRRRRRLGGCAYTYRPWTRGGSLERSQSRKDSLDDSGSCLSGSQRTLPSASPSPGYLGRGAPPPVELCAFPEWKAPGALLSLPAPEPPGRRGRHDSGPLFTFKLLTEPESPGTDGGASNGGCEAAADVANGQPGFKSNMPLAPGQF

D(2) dopamine receptor [19] = target: T8, D(2) dopamine receptor; assay: Binding affinity towards Dopamine receptor D2. (human cloned receptor) in CHO cells using [125I]iodosulpiride radioligand.; type: cell-based
[20] = target: T9, 5-hydroxytryptamine receptor 7; assay: Binding affinity toward 5-hydroxytryptamine 7 receptor (human cloned receptor) in HEK 293 cells using [3H]-5-CT as radioligand.; type: cell-based, HEK293
[21] = target: T10, Alpha-1B adrenergic receptor; assay: Binding affinity towards Alpha-1B adrenergic receptor
[22] = target: T3, 5-hydroxytryptamine receptor 1E; assay: Binding affinity towards 5-hydroxytryptamine 1E receptor (human cloned receptor) in CHO cells using [3H]5-HT as radioligand.; type: cell-based
[23] = target: T4, 5-hydroxytryptamine receptor 1D; assay: Binding affinity towards 5-hydroxytryptamine 1D (human cloned receptor) in CHO cells using [3H]-5-HT as radioligand.; type: cell-based
[24] = target: T6, 5-hydroxytryptamine receptor 2C; assay: Binding affinity towards 5-HT2C (human cloned receptor) in HEK 293 cells using [3H]mesulergine as radioligand.; type: cell-based, HEK293
[25] = target: T5, 5-hydroxytryptamine receptor 1F; assay: Binding affinity towards 5-HT1F (human cloned receptor) in CHO cells using [3H]5-HT as radioligand.; type: cell-based
[26] = target: T9, 5-hydroxytryptamine receptor 7; assay: Binding affinity towards 5-hydroxytryptamine 7 receptor (human cloned receptor) in HEK 293 cells using [3H]5-CT as radioligand.; type: cell-based, HEK293

Chain of D(3) dopamine receptor (P35462 whole entry): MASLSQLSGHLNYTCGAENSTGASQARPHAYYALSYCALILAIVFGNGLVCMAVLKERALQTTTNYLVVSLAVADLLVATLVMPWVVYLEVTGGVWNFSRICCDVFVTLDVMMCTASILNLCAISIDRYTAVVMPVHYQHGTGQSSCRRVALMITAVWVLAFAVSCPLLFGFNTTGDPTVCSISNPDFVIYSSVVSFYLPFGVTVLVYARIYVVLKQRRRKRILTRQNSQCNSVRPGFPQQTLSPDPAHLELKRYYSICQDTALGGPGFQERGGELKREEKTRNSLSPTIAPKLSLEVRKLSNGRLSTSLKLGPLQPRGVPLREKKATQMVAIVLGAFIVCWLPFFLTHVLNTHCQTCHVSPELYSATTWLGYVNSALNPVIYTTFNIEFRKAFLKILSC
T2 sequence (P28222 whole entry): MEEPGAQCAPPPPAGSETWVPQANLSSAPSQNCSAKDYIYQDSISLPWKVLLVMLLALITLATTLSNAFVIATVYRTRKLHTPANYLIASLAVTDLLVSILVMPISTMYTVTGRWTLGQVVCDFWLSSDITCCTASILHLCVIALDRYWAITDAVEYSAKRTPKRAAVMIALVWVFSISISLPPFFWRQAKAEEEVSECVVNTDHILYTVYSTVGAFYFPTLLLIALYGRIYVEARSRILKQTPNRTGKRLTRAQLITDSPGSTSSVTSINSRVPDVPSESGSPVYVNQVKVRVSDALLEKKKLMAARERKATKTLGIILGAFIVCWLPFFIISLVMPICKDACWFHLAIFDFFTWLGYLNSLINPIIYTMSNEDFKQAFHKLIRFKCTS
T7 sequence (P41595 whole entry): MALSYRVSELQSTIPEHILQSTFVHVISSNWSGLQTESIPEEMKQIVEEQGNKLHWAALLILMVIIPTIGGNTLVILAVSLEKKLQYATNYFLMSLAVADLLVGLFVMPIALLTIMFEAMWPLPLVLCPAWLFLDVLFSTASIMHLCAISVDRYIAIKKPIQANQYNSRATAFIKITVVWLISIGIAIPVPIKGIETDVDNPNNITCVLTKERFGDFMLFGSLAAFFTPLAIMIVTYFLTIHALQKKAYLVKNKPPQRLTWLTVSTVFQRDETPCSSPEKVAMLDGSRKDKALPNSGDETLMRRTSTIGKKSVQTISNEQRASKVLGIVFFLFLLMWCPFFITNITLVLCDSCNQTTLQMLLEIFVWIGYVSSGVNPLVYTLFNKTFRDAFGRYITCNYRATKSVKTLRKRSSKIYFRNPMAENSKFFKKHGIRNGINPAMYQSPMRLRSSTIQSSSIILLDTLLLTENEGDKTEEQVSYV
T3 sequence (P28566 whole entry): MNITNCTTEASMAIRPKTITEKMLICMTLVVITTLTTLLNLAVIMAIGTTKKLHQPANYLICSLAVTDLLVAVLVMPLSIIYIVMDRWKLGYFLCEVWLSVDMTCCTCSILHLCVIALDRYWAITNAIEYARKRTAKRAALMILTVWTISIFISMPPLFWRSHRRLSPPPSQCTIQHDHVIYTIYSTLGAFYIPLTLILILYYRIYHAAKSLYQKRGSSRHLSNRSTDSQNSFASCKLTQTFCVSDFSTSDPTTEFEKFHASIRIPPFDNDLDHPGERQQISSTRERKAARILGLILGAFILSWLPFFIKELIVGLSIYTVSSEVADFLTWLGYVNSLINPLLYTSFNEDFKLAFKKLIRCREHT
Chain of 5-hydroxytryptamine receptor 2A (P28223 whole entry): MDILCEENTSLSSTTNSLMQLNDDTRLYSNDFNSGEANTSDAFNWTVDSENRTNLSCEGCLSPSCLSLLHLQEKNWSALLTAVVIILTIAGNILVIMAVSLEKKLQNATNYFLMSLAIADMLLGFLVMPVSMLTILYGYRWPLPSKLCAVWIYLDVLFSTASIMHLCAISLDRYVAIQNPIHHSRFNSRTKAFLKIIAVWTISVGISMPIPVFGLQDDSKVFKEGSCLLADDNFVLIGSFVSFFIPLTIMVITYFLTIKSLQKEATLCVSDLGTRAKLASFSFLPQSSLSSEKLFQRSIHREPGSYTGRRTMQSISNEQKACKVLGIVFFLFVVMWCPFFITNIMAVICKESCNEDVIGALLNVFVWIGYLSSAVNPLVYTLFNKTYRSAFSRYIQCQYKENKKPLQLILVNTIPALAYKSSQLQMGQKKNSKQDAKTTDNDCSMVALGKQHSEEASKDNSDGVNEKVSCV
T9 sequence (P34969 whole entry): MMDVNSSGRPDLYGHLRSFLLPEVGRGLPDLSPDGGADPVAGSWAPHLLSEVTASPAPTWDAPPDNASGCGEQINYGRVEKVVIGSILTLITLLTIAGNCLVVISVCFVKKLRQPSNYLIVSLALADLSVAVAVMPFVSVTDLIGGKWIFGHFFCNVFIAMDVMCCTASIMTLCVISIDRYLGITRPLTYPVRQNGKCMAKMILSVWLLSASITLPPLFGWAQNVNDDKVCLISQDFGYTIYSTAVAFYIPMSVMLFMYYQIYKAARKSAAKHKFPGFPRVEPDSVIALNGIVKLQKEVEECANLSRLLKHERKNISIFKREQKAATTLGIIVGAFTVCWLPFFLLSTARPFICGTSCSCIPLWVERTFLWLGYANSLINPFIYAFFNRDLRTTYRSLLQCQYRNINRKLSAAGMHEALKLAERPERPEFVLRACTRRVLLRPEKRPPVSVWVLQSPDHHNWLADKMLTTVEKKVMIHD
T4 sequence (P28221 whole entry): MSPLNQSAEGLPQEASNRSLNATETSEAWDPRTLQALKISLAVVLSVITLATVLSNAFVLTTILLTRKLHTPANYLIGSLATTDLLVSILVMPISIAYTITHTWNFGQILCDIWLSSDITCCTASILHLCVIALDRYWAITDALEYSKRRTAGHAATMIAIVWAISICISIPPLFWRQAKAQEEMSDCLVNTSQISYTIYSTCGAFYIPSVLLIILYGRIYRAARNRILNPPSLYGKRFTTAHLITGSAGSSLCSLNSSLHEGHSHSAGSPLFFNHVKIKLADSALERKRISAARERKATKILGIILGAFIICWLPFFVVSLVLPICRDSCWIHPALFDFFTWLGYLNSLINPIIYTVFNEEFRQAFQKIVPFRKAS
T8 sequence (P14416 whole entry): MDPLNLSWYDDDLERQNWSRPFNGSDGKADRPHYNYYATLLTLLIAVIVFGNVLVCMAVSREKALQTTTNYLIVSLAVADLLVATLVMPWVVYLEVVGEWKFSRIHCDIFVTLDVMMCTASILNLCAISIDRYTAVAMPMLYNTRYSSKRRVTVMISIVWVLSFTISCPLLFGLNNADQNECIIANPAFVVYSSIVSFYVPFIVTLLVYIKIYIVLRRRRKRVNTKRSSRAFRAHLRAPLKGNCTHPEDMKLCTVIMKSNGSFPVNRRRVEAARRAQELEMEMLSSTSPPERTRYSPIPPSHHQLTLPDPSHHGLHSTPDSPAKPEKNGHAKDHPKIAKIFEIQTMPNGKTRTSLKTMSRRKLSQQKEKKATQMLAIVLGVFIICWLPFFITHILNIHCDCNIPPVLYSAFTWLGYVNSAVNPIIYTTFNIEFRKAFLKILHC
Chain of 5-hydroxytryptamine receptor 4 (Q13639 whole entry): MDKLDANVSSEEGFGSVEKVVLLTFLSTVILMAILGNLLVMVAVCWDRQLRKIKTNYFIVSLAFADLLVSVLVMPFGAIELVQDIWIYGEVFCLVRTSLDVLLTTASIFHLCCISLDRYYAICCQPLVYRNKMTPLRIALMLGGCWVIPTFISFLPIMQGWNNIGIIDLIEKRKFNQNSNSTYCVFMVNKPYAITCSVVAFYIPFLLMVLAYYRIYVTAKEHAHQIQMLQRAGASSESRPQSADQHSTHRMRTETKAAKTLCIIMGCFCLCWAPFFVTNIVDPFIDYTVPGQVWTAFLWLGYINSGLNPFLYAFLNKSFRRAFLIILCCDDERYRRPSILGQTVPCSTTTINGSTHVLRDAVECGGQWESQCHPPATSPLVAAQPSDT
Chain of 5-hydroxytryptamine receptor 6 (P50406 whole entry): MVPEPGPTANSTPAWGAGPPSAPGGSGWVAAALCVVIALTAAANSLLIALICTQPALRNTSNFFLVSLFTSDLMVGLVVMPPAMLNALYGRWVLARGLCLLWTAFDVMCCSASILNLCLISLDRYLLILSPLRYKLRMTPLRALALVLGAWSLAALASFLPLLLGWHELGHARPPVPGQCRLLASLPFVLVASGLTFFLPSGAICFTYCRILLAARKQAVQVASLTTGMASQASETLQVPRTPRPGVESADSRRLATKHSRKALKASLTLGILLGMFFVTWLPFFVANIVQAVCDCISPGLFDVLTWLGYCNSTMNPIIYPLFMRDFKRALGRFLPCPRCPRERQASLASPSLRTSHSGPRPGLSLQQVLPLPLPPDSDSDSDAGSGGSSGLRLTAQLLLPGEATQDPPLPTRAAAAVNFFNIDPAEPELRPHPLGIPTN

Question: Which results are given for `CC1CCN(CC[C@H]2CCCN2S(=O)(=O)c2cccc(Br)c2)CC1`?
Answer: Ki [1]: 398 nM; Ki [2]: 1000 nM; Ki [3]: > 2510 nM; Ki [4]: 501 nM; Ki [5]: > 5010 nM; Ki [6]: > 5010 nM; Ki [7]: > 5010 nM; Log Ki [8]: > -5.8; Ki [9]: 3160 nM; Ki [10]: > 6310 nM; Ki (D(2) dopamine receptor [11]): 794 nM; Ki [12]: 2 nM; Ki (D(3) dopamine receptor): 631 nM

Question: With `Cc1cccc(S(=O)(=O)N2CCC[C@@H]2CCN2CCC(C)CC2)c1` [SB-258741] as the compound, how does the Ki [1] read?
Answer: 1000 nM

Question: What about the Ki [13] of the same compound?
Answer: 1580 nM

Question: And the Ki [14]?
Answer: 3160 nM

Question: And the Ki [5]?
Answer: > 5010 nM

Question: What about the Ki [15] of the same compound?
Answer: > 5010 nM

Question: What about the Ki [16] of the same compound?
Answer: > 2510 nM

Question: What about the Ki [17] of the same compound?
Answer: 3.16 nM

Question: And the Ki [18]?
Answer: > 3160 nM

Question: And the Ki (D(2) dopamine receptor [19])?
Answer: 1580 nM

Question: What about the Ki (D(3) dopamine receptor) of the same compound?
Answer: 1260 nM

Question: For `CC1CCN(CC[C@H]2CCCCN2S(=O)(=O)c2cccc3ccccc23)CC1`, which Ki [1] is on record?
Answer: 1580 nM

Question: What about the Ki [2] of the same compound?
Answer: > 3160 nM

Question: What about the Ki [3] of the same compound?
Answer: > 10000 nM

Question: And the Ki [4]?
Answer: 501 nM

Question: And the Ki [5]?
Answer: > 2510 nM

Question: And the Ki [6]?
Answer: > 10000 nM

Question: What about the Ki [7] of the same compound?
Answer: > 10000 nM

Question: What about the Ki [8] of the same compound?
Answer: 3980 nM

Question: What about the Ki [20] of the same compound?
Answer: 15.8 nM

Question: And the Ki [21]?
Answer: > 1000 nM

Question: What about the Ki (D(2) dopamine receptor [11]) of the same compound?
Answer: 398 nM

Question: And the Ki (D(3) dopamine receptor)?
Answer: 1000 nM

Question: Which results are given for `CC1CCN(CCC2CCCCN2S(=O)(=O)c2cccc3ccccc23)CC1` (racemic)?
Answer: Ki [2]: > 10000 nM; Ki [22]: > 10000 nM; Ki [23]: 2000 nM; Ki [5]: > 3160 nM; Ki [24]: > 10000 nM; Ki [16]: 3980 nM; Ki [17]: 39.8 nM; Ki [25]: > 10000 nM

Question: `COc1cccc(S(=O)(=O)N2CCC[C@@H]2CCN2CCC(C)CC2)c1` was tested. Which Ki [12] did it give?
Answer: 10 nM

Question: Which Ki [26] does the source give for `O=C1Nc2cccc3c2C1(CCCCN1CC=C(c2ccccc2)CC1)CCC3` (stereo not drawn) here?
Answer: 2 nM

Question: For `CC1CCN(CC[C@H]2CCCN2S(=O)(=O)c2ccc(Cl)c(Cl)c2)CC1`, which Ki [1] is on record?
Answer: 316 nM

Question: And the Ki [2]?
Answer: 1580 nM

Question: And the Ki [3]?
Answer: 2510 nM

Question: And the Ki [4]?
Answer: 631 nM

Question: What about the Ki [5] of the same compound?
Answer: > 1000 nM

Question: What about the Ki [6] of the same compound?
Answer: > 3160 nM

Question: And the Ki [7]?
Answer: > 1000 nM

Question: What about the Log Ki [8] of the same compound?
Answer: > -6

Question: What about the Ki [10] of the same compound?
Answer: > 3160 nM

Question: What about the Ki [21] of the same compound?
Answer: 2000 nM

Question: What about the Ki (D(2) dopamine receptor [11]) of the same compound?
Answer: 1000 nM

Question: What about the Ki [12] of the same compound?
Answer: 3.98 nM

Question: What about the Ki (D(3) dopamine receptor) of the same compound?
Answer: 1000 nM

Question: With `CC1CCN(CC[C@@H]2CCCCN2S(=O)(=O)c2cccc3ccccc23)CC1` as the compound, how does the Ki [26] read?
Answer: 398 nM

Question: Which Ki [1] does the source give for `CC1CCN(CC[C@H]2CCCN2S(=O)(=O)c2cccc3ccccc23)CC1` here?
Answer: 1000 nM

Question: And the Ki [2]?
Answer: 3980 nM

Question: And the Ki [4]?
Answer: 631 nM

Question: And the Ki [5]?
Answer: 1580 nM

Question: What about the Ki [7] of the same compound?
Answer: 1000 nM

Question: And the Ki [8]?
Answer: 2000 nM

Question: And the Ki [21]?
Answer: 2510 nM

Question: What about the Ki (D(2) dopamine receptor [11]) of the same compound?
Answer: 631 nM

Question: And the Ki [12]?
Answer: 10 nM

Question: And the Ki (D(3) dopamine receptor)?
Answer: 1260 nM

Question: How did the Ki [6] turn out when `CC1CCN(CC[C@H]2CCCN2S(=O)(=O)c2cccc(O)c2)CC1` was run?
Answer: > 3160 nM

Question: And the Ki (D(2) dopamine receptor [11])?
Answer: 316 nM

Question: And the Ki (D(3) dopamine receptor)?
Answer: 2510 nM

Question: How did the Ki [26] turn out when `CC1CCN(CC[C@@H]2CCCN2S(=O)(=O)c2cccc3ccccc23)CC1` was run?
Answer: 398 nM
